Experimental data: patent EP0975604B1, “PYRIDAZINONES AS INHIBITORS OF CYCLOOXYGENASE-2” (MERCK FROSST CANADA & CO., priority 1997, dated 1998)

Experiments:
COX-2 [1] = molecular target: T1, COX-2 (Homo sapiens, UniProt P35354); experiment: Whole cell assay for COX-2 using CHO transfected cell line (CHO [hCOX-2]); assay type: cell-based; conditions: CHO[hCOX-2] cells, 10 µM AA, PGE2 synthesis
T1 construct: endogenous in cells; host or cells: fresh heparinized human whole blood from volunteers, induced with LPS
T1 sequence (P35354 18-604): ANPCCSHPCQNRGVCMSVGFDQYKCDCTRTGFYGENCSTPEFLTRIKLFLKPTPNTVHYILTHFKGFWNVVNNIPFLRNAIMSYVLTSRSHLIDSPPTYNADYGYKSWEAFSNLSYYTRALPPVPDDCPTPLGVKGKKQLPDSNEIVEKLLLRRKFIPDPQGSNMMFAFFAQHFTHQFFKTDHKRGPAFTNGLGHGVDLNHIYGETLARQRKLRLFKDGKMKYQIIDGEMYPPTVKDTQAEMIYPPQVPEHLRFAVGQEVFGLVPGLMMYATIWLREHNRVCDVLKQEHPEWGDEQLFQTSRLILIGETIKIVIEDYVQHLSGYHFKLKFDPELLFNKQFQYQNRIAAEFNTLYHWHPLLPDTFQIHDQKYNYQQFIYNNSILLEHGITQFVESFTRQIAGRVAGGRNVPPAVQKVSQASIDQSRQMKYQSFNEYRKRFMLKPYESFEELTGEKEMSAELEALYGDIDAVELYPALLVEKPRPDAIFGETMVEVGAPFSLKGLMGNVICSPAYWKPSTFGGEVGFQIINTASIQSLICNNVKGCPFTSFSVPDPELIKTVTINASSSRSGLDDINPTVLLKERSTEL
Experimental: Chinese hamster ovary (CHO) cell lines which have been stably transfected with an eukaryotic expression vector pCDNAIII containing either the human COX-1 or COX-2 cDNA's are used for the assay. These cell lines are referred to as CHO [hCOX-1] and CHO [hCOX-2], respectively. […] Cells (0.3 x 10^6 cells in 200 µl) are preincubated with 3 µl of the test drug or DMSO vehicle for 15 min at 37°C. […] Cells are then challenged in the presence or absence of drug with the AA/HBSS solution to yield a final concentration of 0.5 µM AA in the CHO[hCOX-1] assay and a final concentration of 10 µM AA in the CHO[hCOX-2] assay. […] The samples are centrifuged at 300 x g at 4°C for 10 min, and an aliquot of the clarified supernatant is appropriately diluted for the determination of PGE2 levels using an enzyme-linked immunoassay for PGE2 (Correlate PGE2 enzyme immunoassay kit, Assay Designs, Inc.). Cyclooxygenase activity in the absence of test compounds is determined as the difference in PGE2 levels of cells challenged with arachidonic acid versus the PGE2 levels in cells mock-challenged with ethanol vehicle. Inhibition of PGE2 synthesis by test compounds is calculated as a percentage of the activity in the presence of drug versus the activity in the positive control samples.
(§1) In the assay, inhibition is determined by measuring the amount of prostaglandin E2 (PGE2) synthesized in the presence of arachidonic acid, cyclooxygenase-1 or cyclooxygenase-2 and a putative inhibitor.

COX-2 [2] = molecular target: T1, COX-2; experiment: Human whole blood assay, COX-2 (LPS-induced PGE2 production); assay type: cell-based; conditions: 24 hours at 37°C, read-out: COX-2 (IC50 µM) HWB
From the text: (§2) As well, platelets in whole blood contain a large amount of the COX-1 enzyme. Immediately following blood clotting, platelets are activated through a thrombin-mediated mechanism. This reaction results in the production of thromboxane B2 (TxB2) via activation of COX-1. Thus, the effect of test compounds on TxB2 levels following blood clotting can be examined and used as an index for COX-1 activity. Therefore, the degree of selectivity by the test compound can be determined by measuring the levels of PGE2 after LPS induction (COX-2) and TxB2 following blood clotting (COX-1) in the same assay.
Fresh blood is collected in heparinized tubes by venipuncture from both male and female volunteers. The subjects have no apparent inflammatory conditions and have not taken any NSAIDs for at least 7 days prior to blood collection. Plasma is immediately obtained from a 2mL blood aliquot to use as blank (basal levels of PGE2).

COX-1 [3] = molecular target: T2, COX-1 (Homo sapiens, UniProt P23219); experiment: Assay of COX-1 activity from U937 cell microsomes; assay type: biochemical; design: endogenous in cells; host or cells: U937 cells, 100,000 x g microsomal pellet; conditions: PGE2, read-out: COX-1 (IC50 µM) U-937
Experimental: U 937 cells are pelleted by centrifugation at 500 x g for 5 min and washed once with phosphate-buffered saline and repelleted. Cells are resuspended in homogenization buffer consisting of 0.1 M Tris-HCl, pH 7.4, 10 mM EDTA, 2 µg/ml leupeptin, 2 µg/ml soybean trypsin inhibitor, 2 µg/ml aprotinin and 1 mM phenyl methyl sulfonyl fluoride. The cell suspension is sonicated 4 times for 10 sec and is centrifuged at 10,000 x g for 10 min at 4° C. The supernatant is centrifuged at 100,000 x g for 1 hr at 4 °C. The 100,000 x g microsomal pellet is resuspended in 0.1 M Tris-HCl, pH 7.4, 10 mM EDTA to approximately 7 mg protein/ml and stored at -80° C.
Assays are performed in duplicate in a final volume of 250 µl. Initially, 5 µl of DMSO vehicle or drug in DMSO are added to 20 µl of 0.1 M Tris-HCl buffer, pH 7.4 containing 10 mM EDTA in wells of a 96-deepwell polypropylene titre plate. 200 µl of the microsomal preparation are then added and pre-incubated for 15 min at room temperature before addition of 25 µl of […] arachidonic acid in […] Tris-HCl and 10 mM EDTA, pH 7.4. Samples are incubated for 40 min at room temperature and the reaction is stopped by the addition of 25 µl of 1 N HCl. Samples are neutralized with 25 µl of 1 N NaOH prior to quantitation of PGE2 content by radioimmunoassay (Dupont-NEN or Amersham assay kits). Cyclooxygenase activity is defined as the difference between PGE2 levels in samples incubated in the presence of arachidonic acid and ethanol vehicle.
as §1

COX-1 [4] = molecular target: T2, COX-1; experiment: Human whole blood assay, COX-1 (clotting-induced TxB2 production); assay type: cell-based; design: endogenous in cells; host or cells: platelets in fresh human whole blood left to clot; conditions: 1 hour at 37°C, read-out: COX-1 (IC50 µM) HWB
Experimental: as §2, with “Human whole blood provides a protein and cell-rich milieu appropriate for the study of biochemical efficacy of anti-inflammatory compounds such as selective COX-2 inhibitors. […] This is consistent with the observation that COX-2 inhibitors have no effect on PGE2 production in normal blood. These inhibitors are active only after incubation of human whole blood with LPS, which induces COX-2. This assay can be used to evaluate the inhibitory effect of selective COX-2 inhibitors on PGE2 production. As” for “As”
Fresh blood is collected into vacutainers containing no anticoagulants. Aliquots of 500µL are immediately transferred to siliconized microcentrifuge tubes preloaded with 2µL of either DMSO or a test compound at final concentrations varying from 10nM to 30µM. […]

T2 sequence (P23219 24-599): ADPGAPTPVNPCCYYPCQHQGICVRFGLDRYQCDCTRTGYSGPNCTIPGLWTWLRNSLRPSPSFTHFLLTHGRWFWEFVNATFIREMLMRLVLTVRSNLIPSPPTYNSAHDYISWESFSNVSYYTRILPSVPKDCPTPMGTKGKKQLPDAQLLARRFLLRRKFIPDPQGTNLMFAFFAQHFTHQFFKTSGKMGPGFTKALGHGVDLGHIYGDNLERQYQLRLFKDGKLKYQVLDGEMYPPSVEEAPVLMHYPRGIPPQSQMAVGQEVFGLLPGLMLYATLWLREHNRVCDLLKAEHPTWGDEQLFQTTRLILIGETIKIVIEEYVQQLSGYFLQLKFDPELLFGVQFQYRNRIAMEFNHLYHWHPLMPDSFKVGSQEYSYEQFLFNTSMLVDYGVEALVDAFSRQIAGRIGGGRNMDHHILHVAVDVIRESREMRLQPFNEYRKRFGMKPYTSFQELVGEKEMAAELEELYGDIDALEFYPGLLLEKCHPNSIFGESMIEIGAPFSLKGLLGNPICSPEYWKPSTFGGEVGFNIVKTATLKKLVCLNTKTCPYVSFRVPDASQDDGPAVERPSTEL

Structure (SMILES)	IC50 (COX-2 [1]) [µM]	IC50 (COX-2 [2]) [µM]	IC50 (COX-1 [3]) [µM]	IC50 (COX-1 [4]) [µM]
CS(=O)(=O)c1ccc(-c2cnn(-c3ccccc3)c(=O)c2-c2ccccc2)cc1 [Example 1, 5-(4-Methylsulfonyl)phenyl-2-phenyl-4-phenyl-2H-pyridazin-3-one]	0.08	4.7	–	–
Cn1ncc(-c2ccc(S(C)(=O)=O)cc2)c(-c2ccccc2)c1=O [Example 2, 2-Methyl-5-(4-methylsulfonyl)phenyl-4-phenyl-2H-pyridazin-3-one]	0.7	21	–	–
CS(=O)(=O)c1ccc(-c2cnn(CC3CC3)c(=O)c2-c2ccccc2)cc1 [Example 3, 2-Cyclopropylmethyl-5-(4-methylsulfonyl)phenyl-4-phenyl-2H-pyridazin-3-one]	0.07	1.3	> 10	–
CS(=O)(=O)c1ccc(-c2cnn(CC(F)(F)F)c(=O)c2-c2ccccc2)cc1 [Example 4, 5-(4-Methylsulfonyl)phenyl-4-phenyl-2-(2,2,2-trifluoroethyl)-2H-pyridazin-3-one]	0.5	11.1	> 10	–
CS(=O)(=O)c1ccc(-c2cnn(Cc3ccccc3)c(=O)c2-c2ccccc2)cc1 [Example 5, 2-Benzyl-5-(4-methylsulfonyl)phenyl-4-phenyl-2H-pyridazin-3-one]	–	–	> 10	> 50
CC(C)n1ncc(-c2ccc(S(C)(=O)=O)cc2)c(-c2ccccc2)c1=O [Example 6, 2-Isopropyl-5-(4-methylsulfonyl)phenyl-4-phenyl-2H-pyridazin-3-one]	0.6	2.6	> 10	–
CS(=O)(=O)c1ccc(-c2cnn(CC3CC3)c(=O)c2-c2ccc(F)c(F)c2)cc1 [Example 7, 2-Cyclopropylmethyl-4-(3,4-difluorophenyl)-5-(4-methylsulfonyl)phenyl-2H-pyridazin-3-one]	0.16	3.2	> 10	–
CS(=O)(=O)c1ccc(-c2cnn(Cc3ccccn3)c(=O)c2-c2ccccc2)cc1 [Example 8, 5-(4-Methylsulfonyl)phenyl-4-phenyl-2-(2-pyridylmethyl)-2H-pyridazin-3-one]	~2	> 33	> 10	–
CS(=O)(=O)c1ccc(-c2cnn(Cc3ccccc3)c(=O)c2-c2ccc(F)c(F)c2)cc1 [Example 9, 2-Benzyl-4-(3,4-difluorophenyl)-5-(4-methylsulfonyl)phenyl-2H-pyridazin-3-one]	0.04	1.9	3 to 10	–
CS(=O)(=O)c1ccc(-c2cnn(Cc3ccc(F)cc3)c(=O)c2-c2ccccc2)cc1 [Example 10, 2-(4-Fluorobenzyl)-5-(4-methylsulfonyl)phenyl-4-phenyl-2H-pyridazin-3-one]	0.17	0.9	> 10	–
COC(=O)Cn1ncc(-c2ccc(S(C)(=O)=O)cc2)c(-c2ccccc2)c1=O [Example 11, 2-Carbomethoxymethyl-5-(4-methylsulfonyl)phenyl-4-phenyl-2H-pyridazin-3-one]	5	9.2	> 10	–
CS(=O)(=O)c1ccc(-c2cnn(Cc3ccccc3)c(=O)c2-c2ccc(F)cc2)cc1 [Example 12, 2-Benzyl-4-(4-fluorophenyl)-5-(4-methylsulfonyl)phenyl-2H-pyridazin-3-one]	–	–	3 to 10	–
